Experiment [1] has as its system thermal hyperalgesia in SCI animals. Kind of experiment: Tail flick thermal nociception in contusion SCI rats. It counts as in vivo, Long-Evans rats. The following applies: for % analgesia (maximum possible effect, MPE), tail flick latency: drug alone, s.c. 30 mins prior to testing, morphine 2 mg/kg; for % Analgesia scores, injection of drug alone, compared to morphine alone (52.01%) / % analgesia (MPE), tail flick latency, drug added to morphine: rat, in vivo. A general note: Thermal pain tests record how soon the animal reacts.

The test system is the same in experiment [2]. The following applies: rodent SCI model; Rodgers et al. 2019, 2020; cited from earlier work.
The subject of experiment [3] is patients with pain. The following applies: clinical study using morphine to treat pain; cited from earlier work.
Experiment [4] addresses DIR receptor (Homo sapiens, UniProt P21728). The following applies: Millan, Maiofiss et al. 2002; Chen, Collins et al. 2008; cited from earlier work.
[5] abbreviates: morphine nonresponsive SCI animals (n=18), pramipexole 0.1 mg/kg, SCH 39166 0.1 mg/kg.

The structures appear in SMILES notation. Where “and” joins values, the source holds several entries; their conditions need not be identical. Identical values can stand only once.

DIR receptor, sequence (P21728 whole entry): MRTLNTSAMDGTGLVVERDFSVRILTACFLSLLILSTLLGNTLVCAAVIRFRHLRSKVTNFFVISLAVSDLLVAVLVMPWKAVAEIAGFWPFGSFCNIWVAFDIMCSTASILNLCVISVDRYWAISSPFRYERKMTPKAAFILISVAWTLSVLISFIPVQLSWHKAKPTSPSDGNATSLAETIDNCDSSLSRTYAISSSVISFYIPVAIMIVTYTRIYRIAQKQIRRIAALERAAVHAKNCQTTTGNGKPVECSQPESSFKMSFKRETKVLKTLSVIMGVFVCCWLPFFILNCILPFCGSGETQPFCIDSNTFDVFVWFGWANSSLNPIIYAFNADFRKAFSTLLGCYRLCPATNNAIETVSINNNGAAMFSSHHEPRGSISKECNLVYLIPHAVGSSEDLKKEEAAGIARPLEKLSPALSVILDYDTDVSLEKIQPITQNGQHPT

Turning to `CN1CCc2cc(Cl)c(O)cc2[C@H]2c3ccccc3CC[C@@H]21` [SCH 39166], the “% analgesia (maximum possible effect, MPE), tail flick latency” value in experiment [1] (setting [5]) is recorded as −37.5%±6.99. Moreover, in experiment [1], the “% Analgesia scores, injection of drug alone, compared to morphine alone (52.01%)” value was −21.07%±10.46; the “% analgesia (MPE), tail flick latency, drug added to morphine” value is 18.79%±13.547 and 29.56%+11.51.
With `CN1CC[C@]23c4c5ccc(O)c4O[C@H]2[C@@H](O)C=C[C@H]3[C@H]1C5` [morphine], the “Share of SCI animals responsive to morphine (earlier studies)” value in experiment [2] was “⅓ and one third”. Further, in experiment [3], the “Patients who continued morphine treatment for pain management for more than 12 months” value is recorded as 15% and the “Patients who failed to respond to morphine treatment” value is “more than 50%”. The “Binding to the DIR receptor” value in experiment [4] is listed as “neither morphine nor pramipexole bind to the DIR receptor”. The “Share of SCI animals in which an acute injection of morphine provided analgesia” value in experiment [1] (morphine 2 mg/kg s.c., n=8 of 26 SCI animals) is given as “one third”. Besides, in experiment [1] (setting [5]), the “% analgesia (maximum possible effect, MPE), tail flick latency” value is listed as −24.48%±6.241. Also, the “% analgesia (maximum possible effect, MPE), tail flick latency” value in experiment [1] (morphine responsive SCI animals (n=8)) is reported as 52.01%±3.494.
Turning to `CCCN[C@H]1CCc2nc(N)sc2C1` [pramipexole], the “% analgesia (maximum possible effect, MPE), tail flick latency” value in experiment [1] (setting [5]) is reported as −7.27%±11.06. Also, in experiment [1], the “% Analgesia scores, injection of drug alone, compared to morphine alone (52.01%)” value is reported as 12.87%±15.84; the “% analgesia (MPE), tail flick latency, drug added to morphine” value was 96.98%±1.985 and 64.38%±10.37.
